Results from US20100016232A1, “Treatment Of Inflammatory Diseases With Mammal Beta Defensins” (Novozymes A/S, priority 2008, published 2010).
Marks after values point to notes of the source that are not given here. Where no end group is shown, it is not given here.

Experiments:
[1] = tested on: collagen-induced arthritis (CIA) in the mouse; assay: Collagen-induced rheumatoid arthritis model, clinical arthritis score; type: in vivo; parameters: key: each paw scored 0-4 by ascending severity; total summed over paws
Protocol: All animals were subjected on Day 0 of the study (study commencement) to an intradermal injection into the tail of 0.1 ml Type II Collagen/CFA emulsion (200 μg collagen per mouse) under light Isoflurane anesthesia, using a plastic syringe. The location of injection was at an approximate caudal distance of about 1 cm from the base of the tail. A collagen challenge (200 μg/mouse) was presented to the animals by IP injection of collagen and PBS on Day 21.
Treatments were commenced on day 14 of the study and continued once daily throughout. All surviving mice were terminated on study day 42.
Mice were examined for signs of arthritogenic responses in peripheral joints on study day 0, 14, 21 and thereafter five times weekly until termination of the study. Arthritis reactions were reported for each paw according to a 0-4 scale in ascending order of severity as shown below:
In accordance with Home Office regulations mice with a total clinical score of equal to or greater than 12 were culled due to arthritis severity. The clinical score of these mice at termination was carried forward in the analysis for the remainder of the study in order that the data was not artificially skewed by the removal of high scoring mice.

[2] = tested on: TNF production from human peripheral blood mononuclear cells (PBMC); assay: TNF production from human PBMC, Cytometric Bead Array; type: cell-based
In short: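 Ficoll-isolated PBMC from healthy donors cultured in medium with 2% autologous plasma, stimulated (LPS or LTA) with or without compound for 24 hours at 37° C. Supernatant cytokines quantified by flow-cytometric inflammation bead array, in some experiments by ELISA; viability checked by Alamar Blue.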

[3] = LPS 0.6 ng/ml, test compound 1 μg/ml, Table 16
[4] = LPS 0.6 ng/ml, test compound 10 μg/ml, Table 16
[5] = LPS 0.6 ng/ml, test compound 40 μg/ml, Table 16
[6] = LPS 20 ng/ml, test compound 1 μg/ml, Table 16
[7] = LPS 20 ng/ml, test compound 10 μg/ml, Table 16
[8] = LPS 20 ng/ml, test compound 40 μg/ml, Table 16

In the case of “hBD2: human beta defensin 2, SEQ ID NO:2; produced recombinantly in E. coli (Example 1); hBD2 of Tables 16-18 was prepared by chemical synthesis (GIGDPVTCLKSGAICHPVFCPRRYKQIGTCGLPGTKCCKKP; ends and bridges not checked; cysteine pairing not given here; listed as Homo sapiens)”, the “Mean total arthritis score, peak” value ([1]; 0.1 mg/kg i.v. once daily from day 14 (Group E), study day 40) is reported as 9.0±0.77, the “Mean total arthritis score, peak” value ([1]; 1 mg/kg i.v. once daily from day 14 (Group D), study day 41) is reported as 5.2±1.11 and the “Mean total arthritis score, peak” value ([1]; 10 mg/kg i.v. once daily from day 14 (Group C), study day 40) is reported as 5.0±1.04. For the same substance, the “Mean Arthritic Score” value ([1]; Group C, 10 mg/kg IV once daily, Study Day 0) was 0.0, the “Mean Arthritic Score” value ([1]; Group C, 10 mg/kg IV once daily, Study Day 14) was 1.7 and the “Mean Arthritic Score” value ([1]; Group C, 10 mg/kg IV once daily, Study Day 21) was 3.1. For the same substance, the “Mean Arthritic Score” value ([1]; Group C, 10 mg/kg IV once daily, Study Day 22) was 4.3, the “Mean Arthritic Score” value ([1]; Group C, 10 mg/kg IV once daily, Study Day 23) was 3.3 and the “Mean Arthritic Score” value ([1]; Group C, 10 mg/kg IV once daily, Study Day 26) was 4.1. For the same substance, the “Mean Arthritic Score” value ([1]; Group C, 10 mg/kg IV once daily, Study Day 27) was 4.1, the “Mean Arthritic Score” value ([1]; Group C, 10 mg/kg IV once daily, Study Day 28) was 4.1 and the “Mean Arthritic Score” value ([1]; Group C, 10 mg/kg IV once daily, Study Day 29) was 4.4. For the same substance, the “Mean Arthritic Score” value ([1]; Group C, 10 mg/kg IV once daily, Study Day 30) was 4.9, the “Mean Arthritic Score” value ([1]; Group C, 10 mg/kg IV once daily, Study Day 33) was 4.8 and the “Mean Arthritic Score” value ([1]; Group C, 10 mg/kg IV once daily, Study Day 34) was 4.9. For the same substance, the “Mean Arthritic Score” value ([1]; Group C, 10 mg/kg IV once daily, Study Day 35) was 4.9, the “Mean Arthritic Score” value ([1]; Group C, 10 mg/kg IV once daily, Study Day 36) was 4.8 and the “Mean Arthritic Score” value ([1]; Group C, 10 mg/kg IV once daily, Study Day 37) was 4.7. For the same substance, the “Mean Arthritic Score” value ([1]; Group C, 10 mg/kg IV once daily, Study Day 40) was 5.0, the “Mean Arthritic Score” value ([1]; Group C, 10 mg/kg IV once daily, Study Day 41) was 4.8* and the “Mean Arthritic Score” value ([1]; Group D, 1 mg/kg IV once daily, Study Day 0) was 0.0. For the same substance, the “Mean Arthritic Score” value ([1]; Group D, 1 mg/kg IV once daily, Study Day 14) was 0.6, the “Mean Arthritic Score” value ([1]; Group D, 1 mg/kg IV once daily, Study Day 21) was 2.1 and the “Mean Arthritic Score” value ([1]; Group D, 1 mg/kg IV once daily, Study Day 22) was 2.3. The “Mean Arthritic Score” value ([1]; Group D, 1 mg/kg IV once daily, Study Day 23) was 2.0, the “Mean Arthritic Score” value ([1]; Group D, 1 mg/kg IV once daily, Study Day 26) was 2.0 and the “Mean Arthritic Score” value ([1]; Group D, 1 mg/kg IV once daily, Study Day 27) was 2.0. For the same substance, the “Mean Arthritic Score” value ([1]; Group D, 1 mg/kg IV once daily, Study Day 28) was 2.3, the “Mean Arthritic Score” value ([1]; Group D, 1 mg/kg IV once daily, Study Day 29) was 2.4 and the “Mean Arthritic Score” value ([1]; Group D, 1 mg/kg IV once daily, Study Day 30) was 2.7. For the same substance, the “Mean Arthritic Score” value ([1]; Group D, 1 mg/kg IV once daily, Study Day 33) was 4.0, the “Mean Arthritic Score” value ([1]; Group D, 1 mg/kg IV once daily, Study Day 34) was 4.1 and the “Mean Arthritic Score” value ([1]; Group D, 1 mg/kg IV once daily, Study Day 35) was 4.0. The “Mean Arthritic Score” value ([1]; Group D, 1 mg/kg IV once daily, Study Day 36) was 4.1, the “Mean Arthritic Score” value ([1]; Group D, 1 mg/kg IV once daily, Study Day 37) was 4.2 and the “Mean Arthritic Score” value ([1]; Group D, 1 mg/kg IV once daily, Study Day 40) was 4.7*. The “Mean Arthritic Score” value ([1]; Group D, 1 mg/kg IV once daily, Study Day 41) was 5.2, the “Mean Arthritic Score” value ([1]; Group E, 0.1 mg/kg IV once daily, Study Day 0) was 0.0 and the “Mean Arthritic Score” value ([1]; Group E, 0.1 mg/kg IV once daily, Study Day 14) was 1.2. For the same substance, the “Mean Arthritic Score” value ([1]; Group E, 0.1 mg/kg IV once daily, Study Day 21) was 3.2, the “Mean Arthritic Score” value ([1]; Group E, 0.1 mg/kg IV once daily, Study Day 22) was 3.6 and the “Mean Arthritic Score” value ([1]; Group E, 0.1 mg/kg IV once daily, Study Day 23) was 3.2. The “Mean Arthritic Score” value ([1]; Group E, 0.1 mg/kg IV once daily, Study Day 26) was 3.7, the “Mean Arthritic Score” value ([1]; Group E, 0.1 mg/kg IV once daily, Study Day 27) was 4.1 and the “Mean Arthritic Score” value ([1]; Group E, 0.1 mg/kg IV once daily, Study Day 28) was 4.4. For the same substance, the “Mean Arthritic Score” value ([1]; Group E, 0.1 mg/kg IV once daily, Study Day 29) was 5.0, the “Mean Arthritic Score” value ([1]; Group E, 0.1 mg/kg IV once daily, Study Day 30) was 5.9 and the “Mean Arthritic Score” value ([1]; Group E, 0.1 mg/kg IV once daily, Study Day 33) was 7.3. For the same substance, the “Mean Arthritic Score” value ([1]; Group E, 0.1 mg/kg IV once daily, Study Day 34) was 7.8, the “Mean Arthritic Score” value ([1]; Group E, 0.1 mg/kg IV once daily, Study Day 35) was 8.0 and the “Mean Arthritic Score” value ([1]; Group E, 0.1 mg/kg IV once daily, Study Day 36) was 8.2. For the same substance, the “Mean Arthritic Score” value ([1]; Group E, 0.1 mg/kg IV once daily, Study Day 37) was 8.7, the “Mean Arthritic Score” value ([1]; Group E, 0.1 mg/kg IV once daily, Study Day 40) was 9.0 and the “Mean Arthritic Score” value ([1]; Group E, 0.1 mg/kg IV once daily, Study Day 41) was 8.8. The TNF ([2]; LPS 0.6 ng/ml, hBD2 1 μg/ml, Table 1) was 944.8 pg/mL, the TNF ([2]; LPS 0.6 ng/ml, hBD2 1 μg/ml, Table 11) was 170 pg/mL and the TNF ([2]; LPS 0.6 ng/ml, hBD2 10 μg/ml, Table 1) was 1076.4 pg/mL. For the same substance, the TNF ([2]; LPS 0.6 ng/ml, hBD2 10 μg/ml, Table 11) was 200 pg/mL, the TNF ([2]; LPS 0.6 ng/ml, hBD2 100 μg/ml, Table 1) was 634.2 pg/mL and the TNF ([2]; LPS 0.6 ng/ml, hBD2 100 μg/ml, Table 11) was 0 pg/mL. For the same substance, the TNF ([2]; LPS 0.6 ng/ml, hBD2 1000 μg/ml, Table 11) was 3 pg/mL, the TNF [2, 3] was 242 pg/mL and the “TNF % of control” value [2, 3] was 33%. The TNF [2, 4] was 304 pg/mL, the “TNF % of control” value [2, 4] was 42% and the TNF [2, 5] was 176 pg/mL. The “TNF % of control” value [2, 5] was 24%, the TNF ([2]; LPS 20 ng/ml, hBD2 1 μg/ml, Table 1) was 1526.9 pg/mL and the TNF ([2]; LPS 20 ng/ml, hBD2 1 μg/ml, Table 11) was 6240 pg/mL. It also gave a TNF ([2]; LPS 20 ng/ml, hBD2 10 μg/ml, Table 1) of 1306.6 pg/mL, a TNF ([2]; LPS 20 ng/ml, hBD2 10 μg/ml, Table 11) of 350 pg/mL and a TNF ([2]; LPS 20 ng/ml, hBD2 100 μg/ml, Table 1) of 1733.9 pg/mL. For the same substance, the TNF ([2]; LPS 20 ng/ml, hBD2 100 μg/ml, Table 11) was 38 pg/mL, the TNF ([2]; LPS 20 ng/ml, hBD2 1000 μg/ml, Table 11) was 0 pg/mL and the TNF [2, 6] was 411 pg/mL. For the same substance, the “TNF % of control” value [2, 6] was 19%, the TNF [2, 7] was 132 pg/mL and the “TNF % of control” value [2, 7] was 6%. The TNF [2, 8] was 52 pg/mL, the “TNF % of control” value [2, 8] was 2% and the TNF ([2]; LPS 20 ng/ml, treatment 1 μg/ml, Table 21) was 633 pg/mL. The TNF ([2]; LPS 20 ng/ml, treatment 10 μg/ml, Table 21) was 359 pg/mL, the TNF ([2]; LPS 20 ng/ml, treatment 100 μg/ml, Table 21) was 342 pg/mL and the TNF ([2]; LTA 1.25 μg/ml, hBD2 1 μg/ml, Table 1) was 711.5 pg/mL. The TNF ([2]; LTA 1.25 μg/ml, hBD2 1 μg/ml, Table 11) was 3900 pg/mL, the TNF ([2]; LTA 1.25 μg/ml, hBD2 10 μg/ml, Table 1) was 494.7 pg/mL and the TNF ([2]; LTA 1.25 μg/ml, hBD2 10 μg/ml, Table 11) was 2330 pg/mL. The TNF ([2]; LTA 1.25 μg/ml, hBD2 100 μg/ml, Table 1) was 375.2 pg/mL, the TNF ([2]; LTA 1.25 μg/ml, hBD2 100 μg/ml, Table 11) was 1150 pg/mL and the TNF ([2]; LTA 1.25 μg/ml, hBD2 1000 μg/ml, Table 11) was 110 pg/mL. It also gave a TNF ([2]; Medium, hBD2 1 μg/ml, Table 1) of 4.2 pg/mL, a TNF ([2]; Medium, hBD2 1 μg/ml, Table 9) of 3.4 pg/mL and a TNF ([2]; Medium, hBD2 1 μg/ml, Table 11) of 0 pg/mL. It also gave a TNF ([2]; Medium, hBD2 10 μg/ml, Table 1) of 2.6 pg/mL, a TNF ([2]; Medium, hBD2 10 μg/ml, Table 9) of 3.7 pg/mL and a TNF ([2]; Medium, hBD2 10 μg/ml, Table 11) of 0 pg/mL. For the same substance, the TNF ([2]; Medium, hBD2 100 μg/ml, Table 1) was 2.9 pg/mL, the TNF ([2]; Medium, hBD2 100 μg/ml, Table 9) was 3.6 pg/mL and the TNF ([2]; Medium, hBD2 100 μg/ml, Table 11) was 0 pg/mL. It also gave a TNF ([2]; Medium, hBD2 1000 μg/ml, Table 11) of 0 pg/mL, a TNF ([2]; Medium, test compound 1 μg/ml, Table 16) of 0 pg/mL and a TNF ([2]; Medium, test compound 10 μg/ml, Table 16) of 0 pg/mL. It also gave a TNF ([2]; Medium, test compound 40 μg/ml, Table 16) of 0 pg/mL, a TNF ([2]; Medium, treatment 1 μg/ml, Table 21) of 3 pg/mL and a TNF ([2]; Medium, treatment 10 μg/ml, Table 21) of 2 pg/mL. The TNF ([2]; Medium, treatment 100 μg/ml, Table 21) was 2 pg/mL, the TNF ([2]; PBMC stimulated with Pam3CSK4 (TLR2-TLR1 ligand), results not shown) was “able to downregulate TNF” and the TNF ([2]; PGN 40 μg/ml, hBD2 1 μg/ml, Table 9) was 809.9 pg/mL. For the same substance, the TNF ([2]; PGN 40 μg/ml, hBD2 10 μg/ml, Table 9) was 362.0 pg/mL and the TNF ([2]; PGN 40 μg/ml, hBD2 100 μg/ml, Table 9) was 274.9 pg/mL.
